Measurements: article PMC3549917, “Characterization of two antimicrobial peptides produced by a halotolerant Bacillus subtilis strain SK.DU.4 isolated from a rhizosphere soil sample” (AMB Express, 2013)
Where no end group is shown, it is not given here.

Assays:
Assay in all cases: Well diffusion assay, inhibition spectrum
Type in all cases: cell-based
B. subtilis MTCC121 = conditions: Polymyxin B at 300 U
Experimental: (§1) The bacteriocin activity was determined by well diffusion assay. The strain was grown for 24 h in 200 ml nutrient broth (NB, Himedia) using 500 ml flask and subsequently cells were removed by centrifugation (8000 rpm for 20 min, 4°C). The supernatant obtained was filtered by using 0.22 μm filter (Millipore), diluted by two fold and used to test the activity as mentioned earlier (Singh et al. [2012]). The antimicrobial peptide production was also tested by growing the strain in minimal medium. To examine the antimicrobial activity, S. aureus cells were processed for scanning electron micrograph (SEM) as described by earlier (Singh et al. [2012]). Growth curve was prepared to examine the bacteriocin production along with the growth of strain SK.DU4.
(§2) Although the antimicrobial peptides were produced in NB for large scale preparation, the influence of different carbon and nitrogen sources on peptides production was tested using minimal medium. […] The optimum pH for the production of antimicrobial peptides was 7.2 and there was no significant change in pH was observed during the production of antimicrobial peptides. The bacteriocin-like peptide was extracted from CFB by hydrophobic interaction chromatography using Diaion HP-20 beads and purified by a combination of chromatography techniques as described previously (Singh et al. [2012]). Subsequently, the purified peptide was tested for antimicrobial activity against an array of Gram-positive and Gram-negative bacteria, yeasts and fungi strains using well diffusion assays.

S. mutans MTCC497 = conditions: lipopeptide combined with bacteriocin-like peptide
Experimental: as §1, §2

M. luteus MTCC106 = conditions: 100 μl of the lowest dilution inhibiting test strain, similar results in three individual experiments
Experimental: as §1, §2

L. monocytogenes MTCC839 = conditions: 100 μl of the lowest dilution inhibiting test strain, similar results in three individual experiments
Experimental: as §1, §2

Substance: DYNQPNS (also: lariat or depsi (positions not given here)) [Lipopeptide, cyclic iturin-like lipopeptide (m/z 1056 Da), β-hydroxy fatty acid linked to Ser of heptapeptide, from strain SK.DU.4]
- Inhibition activity (B. subtilis MTCC121): inhibited growth
- growth inhibition in combination with bacteriocin-like peptide (S. mutans MTCC497): inhibited the growth
- inhibition zone (M. luteus MTCC106): 11 mm
- inhibition zone (L. monocytogenes MTCC839): 11 mm
